Measured values published in patent US20250064799A1, “ORAL FORMULATIONS OF LEVOSIMENDAN FOR TREATING PULMONARY HYPERTENSION WITH HEART FAILURE WITH PRESERVED EJECTION FRACTION” (Tenax Therapeutics, Inc., priority 2021, published 2025).
“And” between values parts separate entries of the source, which are not always exact repeats. Equal values may be shown once.

Experiments:
[1] = tested on: subjects with pulmonary hypertension with heart failure and preserved ejection fraction; test: TNX-LVO-05 safety review: treatment emergent adverse events; type: in vivo, human
Source text: This is the third safety review for Study Protocol No. TNX-LVO-05. This review a) summarizes treatment emergent adverse events (TEAEs), treatment emergent serious adverse events (TESAEs), discontinuations due to TEAEs, and b) provides an overall assessment of safety data.
As of 4 Nov. 2020, 36 subjects have been enrolled in this open-label study with levosimendan and 18 (−5; this number presents change versus previous Safety Review) are still active. Seven subjects (+3) withdrew due to AE, and eight (+2) subjects withdrew consent. One subject was withdrawn by investigator decision.

patients with PH-HFpEF = test: HELP Study (TNX-LVO-04), weekly I.V. levosimendan for 6 weeks; type: in vivo, human; design: HELP (WK 6) 6MWT: unit not given here
Source text: The initial HELP Study is described in PCT International Application Publication No. WO 2021/126884 and Burkhoff, et al. (2021) “Levosimendan improves hemodynamics and exercise tolerance in PH-HFpEF: results of the randomized placebo-controlled HELP trial,” the entire contents of each of which are incorporated by reference. […] Among the goals of the extension study was to determine the dose of oral levosimendan that could maintain the efficacy of the weekly I.V. infusions of levosimendan.
PH-HFpEF is a progressive, fatal disease for which there are no approved therapies. All patients that the 6-week parent TNX-LVO-04 study (also referred to as the initial Help Study) underwent assessments of safety and efficacy in a double-blind randomized protocol. […] For these reasons, all participating patients were allowed to enter an open-label extension study (also referred to as TNX-LVO-05), to provide ongoing levosimendan therapy for two additional years. […]

[2] = individual patients, Active arm of HELP Study, weekly I.V. levosimendan, week 6

C[C@@H]1CC(=O)NN=C1c1ccc(NN=C(C#N)C#N)cc1 [levosimendan]
TEAE arthralgia ([1]; of 36 enrolled): 3 subjects
TEAE asthenia ([1]; of 36 enrolled): 3 subjects
TEAE back pain ([1]; of 36 enrolled): 3 subjects
TEAE cardiac failure ([1]; of 36 enrolled): 6 subjects
TEAE dermatitis ([1]; of 36 enrolled): 3 subjects
TEAE device infusion issues ([1]; of 36 enrolled): 3 subjects
TEAE dizziness ([1]; of 36 enrolled): 8 subjects
TEAE dyspnea ([1]; of 36 enrolled): 8 subjects
TEAE fluid overload ([1]; of 36 enrolled): 3 subjects
TEAE gout ([1]; of 36 enrolled): 3 subjects
TEAE headache ([1]; of 36 enrolled): 5 subjects
TEAE hemoptysis ([1]; of 36 enrolled): 3 subjects
TEAE hypokalemia ([1]; of 36 enrolled): 7 subjects
TEAE palpitations ([1]; of 36 enrolled): 4 subjects
TEAE pneumonia ([1]; of 36 enrolled): 3 subjects
TEAE upper respiratory tract infection ([1]; of 36 enrolled): 3 subjects
TEAE urinary tract infection ([1]; of 36 enrolled): 3 subjects
TEAE ventricular extrasystoles ([1]; of 36 enrolled): 3 subjects
TEAE weight increased ([1]; of 36 enrolled): 3 subjects
drug-related TEAE device infusion issue ([1]; of 36 enrolled): 3 subjects
drug-related TEAE headache ([1]; of 36 enrolled): 2 subjects
drug-related TEAE palpitations ([1]; of 36 enrolled): 2 subjects
drug-related TEAE urticaria ([1]; of 36 enrolled): 2 subjects
drug-related TEAE ventricular extrasystoles ([1]; of 36 enrolled): 2 subjects
subjects permanently discontinued study drug due to a TEAE ([1]; of 36 enrolled): 5 subjects
subjects with TEAEs, SOC General disorders and administration site conditions ([1]; of 36 enrolled): 15 subjects
subjects with TEAEs, SOC Nervous system disorders ([1]; of 36 enrolled): 15 subjects
TESAE asthenia ([1]; of 36 enrolled (5.6%)): 2 subjects
TESAE cardiac failure congestive ([1]; of 36 enrolled (5.6%)): 2 subjects
TESAE pneumonia ([1]; of 36 enrolled (8.3%)): 3 subjects
TESAEs, SOC Metabolism and nutrition disorders ([1]; of 36 enrolled (8.3%)): 4 subjects
related TEAEs, SOC Nervous system disorders ([1]; of 36 enrolled (8.3%)): 3 subjects
related TEAEs, SOC Respiratory, thoracic and mediastinal disorders ([1]; of 36 enrolled (8.3%)): 3 subjects
related TEAEs, SOC Skin and subcutaneous tissue disorders ([1]; of 36 enrolled (8.3%)): 3 subjects
related TEAEs, SOC cardiac disorders ([1]; of 36 enrolled (8.3%)): 5 subjects
TESAE cardiac failure ([1]; of 36 enrolled (11.1%)): 4 subjects
related TEAEs, SOC Product issues ([1]; of 36 enrolled (11.4%)): 4 subjects
TESAEs, SOC Infections and Infestations ([1]; of 36 enrolled (22.2%)): 8 subjects
TESAEs, SOC cardiac disorders ([1]; of 36 enrolled (22.2%)): 8 subjects
subjects with TEAE severity moderate ([1]; of 36 enrolled (25.0%)): 9 subjects
subjects with TEAE severity mild ([1]; of 36 enrolled (27.8%)): 10 subjects
subjects with TEAE severity severe ([1]; of 36 enrolled (36.1%)): 13 subjects
subjects with TEAEs considered related to the study drug ([1]; of 36 enrolled (41.7%)): 15 subjects
subjects with TEAEs, SOC Cardiac disorders ([1]; of 36 enrolled (47.2%)): 17 subjects
subjects with TEAEs, SOC Infections and Infestations ([1]; of 36 enrolled (47.2%)): 17 subjects
subjects with serious TEAEs (TESAEs) ([1]; of 36 enrolled (55.6%)): 20 subjects
subjects with TEAEs ([1]; of 36 enrolled (88.9%)): 32 subjects
overall safety assessment ([1]; third safety review, as of 4 Nov. 2020): no safety trends or signals
serious TEAEs considered related ([1]; two of 36 enrolled): 5.6%
HELP (WK 6) 6MWT (patients with PH-HFpEF; [2]): 311 and 397 and 270 and 218 and 232 and 401 and 196 and 482
HELP (WK 6) HR (patients with PH-HFpEF; [2]): 72 and 63 (2×) and 86 and 71 and 67 and 75 (2×)
average improvement of 6-minute walk distance (patients with PH-HFpEF; levosimendan alone, PH-HFpEF patients): approximately 29 m
effect on pulmonary vascular resistance (patients with PH-HFpEF; particularly upon chronic administration): did not decrease
